The text below walks through data of ChEMBL document CHEMBL1201862, “PubChem BioAssay data set” (2004).

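Exposure lasted 48 hours, with cells grown in 96-well plates and compounds tested at five concentrations. At the GI50, growth is halved.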 Activity calls are given as the source filed them. Rule as the data show it: active = GI50 up to about 1.1 µM and inactive = higher.

Among the test systems are COLO 205; EKVX; HCT-116; HCT-15; IGROV-1; KM12; LOX IMVI; MOLT-4; NCI-H460; OVCAR-4; OVCAR-5; SF-268; SF-295; SK-MEL-28; SK-MEL-5; SNB-19; SW-620; U-251; UACC-257; UACC-62.
Experiment in all cases: DTP human tumour cell line panel, 48 h

Turning to `O=C1O/C(=C\c2ccc(O)c(Br)c2)C(c2ccc(O)c(Cl)c2)=C1Br`, the GI50 with COLO 205 was 18.1 µM (inactive); with EKVX, 21.2 µM (inactive); in the experiment on HCT-116, 13.7 µM (inactive); in the experiment with HCT-15, 12.7 µM; with IGROV-1 it was 21.9 µM (inactive); in the experiment with KM12 it was 15 µM (inactive). The GI50 is 44.6 µM (inactive) in the experiment with LOX IMVI; 16.6 µM (inactive) in the experiment on MOLT-4; 17.1 µM (inactive) in the experiment on NCI-H460; 11.5 µM (inactive) in the experiment on OVCAR-4; 18.6 µM (inactive) in the experiment with OVCAR-5; 14.3 µM (inactive) with SF-268. In addition, the GI50 with SF-295 was 16.1 µM (inactive); in the experiment on SK-MEL-28, 16.3 µM (inactive); in the experiment with SK-MEL-5, 14.8 µM (inactive); in the experiment on SNB-19 it was 18.3 µM (inactive); with SW-620 it was 17.3 µM (inactive); in the experiment with U-251 it was 13.5 µM (inactive). Besides, the GI50 was 15.8 µM (inactive) in the experiment with UACC-257 and 13.9 µM (inactive) in the experiment on UACC-62.

On to `CCOC(=O)CCN1C(=O)c2c(NC(=O)C(=O)O)cccc2S1(=O)=O`, for which the GI50 was > 100 µM (inactive) in the experiment on COLO 205; > 100 µM (inactive) in the experiment on EKVX; > 100 µM (inactive) with HCT-116; over 100 µM in the experiment with HCT-15; > 100 µM (inactive) in the experiment on IGROV-1; > 100 µM (inactive) with KM12. Further, the GI50 with LOX IMVI, in the experiment on MOLT-4, with NCI-H460, with OVCAR-4, with OVCAR-5 and in the experiment on SF-268 was > 100 µM (inactive) throughout. In addition, the GI50 in the experiment on SF-295 was > 100 µM (inactive); in the experiment on SK-MEL-28 it was > 100 µM (inactive); with SK-MEL-5, > 10 µM (inactive); with SNB-19, > 100 µM (inactive); in the experiment with SW-620, > 100 µM (inactive); in the experiment with U-251, > 100 µM (inactive). Further, the GI50 in the experiment with UACC-257 and in the experiment on UACC-62 was > 100 µM (inactive) each time.

Take `Cc1nc(O)nc(O)c1/C=C/C(=O)O`: the GI50 with COLO 205 is > 1000 µM (inactive); in the experiment on EKVX it was > 1000 µM (inactive); with HCT-116 it was > 1000 µM (inactive); in the experiment with HCT-15 it was over 1000 µM; in the experiment on IGROV-1, > 1000 µM (inactive); with KM12 it was > 1000 µM (inactive). Moreover, the GI50 in the experiment on LOX IMVI is > 1000 µM (inactive); in the experiment on MOLT-4 it was > 1000 µM (inactive); with NCI-H460, > 1000 µM (inactive); in the experiment on OVCAR-4, > 1000 µM (inactive); in the experiment on OVCAR-5, > 891 µM (inactive); with SF-268, > 1000 µM (inactive). Also, the GI50 in the experiment with SF-295, in the experiment on SK-MEL-28, in the experiment with SK-MEL-5, in the experiment with SNB-19, in the experiment with SW-620 and with U-251 was > 1000 µM (inactive) throughout. The GI50 in the experiment with UACC-257 and in the experiment with UACC-62 was > 1000 µM (inactive) in each case.

Turning to `CCc1c(-c2ccc(OC)cc2)oc(OC)c(C)c1=O`, the GI50 with COLO 205 is > 100 µM (inactive); in the experiment on EKVX, 63.4 µM (inactive); in the experiment on HCT-116 it was 55.1 µM (inactive); in the experiment on HCT-15, over 100 µM; with IGROV-1, > 100 µM (inactive); in the experiment with KM12 it was > 100 µM (inactive). The GI50 in the experiment on LOX IMVI is 63.7 µM (inactive); with MOLT-4, 31.9 µM (inactive); with NCI-H460, 40.5 µM (inactive); with OVCAR-4, 85.9 µM (inactive); in the experiment with OVCAR-5, > 100 µM (inactive); in the experiment on SF-268, > 100 µM (inactive). Also, the GI50 is > 100 µM (inactive) in the experiment with SF-295; > 100 µM (inactive) with SK-MEL-28; 32.2 µM (inactive) in the experiment with SK-MEL-5; > 100 µM (inactive) in the experiment with SNB-19; > 100 µM (inactive) in the experiment on SW-620; > 100 µM (inactive) with U-251. For the same molecule, the figures for the GI50 in the experiment with UACC-257 and in the experiment with UACC-62 were 65.6 µM (inactive) and 64 µM (inactive), respectively.
